Results as given in US20120128628A1, “COMBINATION OF A NUCLEOSIDE POLYMERASE INHIBITOR WITH A MACROCYCLIC PROTEASE INHIBITOR AND USE THEREOF IN THE TREATMENT OF HEPATITIS C, LIVER FIBROSIS AND IMPAIRED LIVER FUNCTION (as amended)” (priority 2009, published 2012).

Legend:
[1] = test system: HCV replication; conditions: cited from earlier work
[2] = test system: chronic hepatitis C genotype 1; assay: HCV RNA viral load determination (COBAS AmpilPrep/COBAS Taqman HCV Test RUO) in a dose ranging study in patients; type: in vivo, Hepatitis C virus; conditions: monotherapy 750 mg, bid; after 7 days of treatment
Method: A randomized, double-blind, placebo controlled, dose ranging study of Compound 1a and Compound 2 in adult patients with chronic hepatitis C genotype 1 was conducted. Approximately 54 treatment naïve males and females between 18 and 65 years of age (inclusive) with genotype 1 HCV infection who had not previously been treated with an interferon or investigational HCV therapeutic agent were enrolled. Approximately an additional 20 treatment patients who had failed treatment with the current standard of care (null, partial responders and relapsers) were enrolled. […] Subjects with liver cirrhosis or incomplete/transition to cirrhosis, or other forms of liver disease, anemia, HIV or HBV infection, hepatocellular carcinoma, cardiac disease or renal disease were excluded from this particular protocol, as well as pregnant or lactating women, women of childbearing potential, and male partners of women who are pregnant or lactating.
Seven groups, Groups I, II, III, IV, V, VI and VII, of subjects were studied. Blood samples were collected at time points to determine pharmacokinetics parameters, including Tmax, Cmax, Kel, T1/2, AUC, CL/F, Vd/F and accumulation ratio.
The specifics of Groups I, II, III, IV, V, VI and VII are shown in Table 1 below and pictorially in FIGS. 2 and 3. Group I included two arms with 8 subjects in Arm 1 and 8 subjects in Arm 2. […]

[3] = prodrug compared to Compound 1; cited from earlier work

Row | Compound | inhibiting HCV replication [1] | mean log change from baseline of HCV RNA viral load [2] [log10 IU/mL] | anti-viral efficacy ([1]; prodrug compared to Compound 1) | permeability [3] | plasma exposure [3]
1 | C[C@@]1(F)[C@H](O)[C@@H](CO)O[C@H]1n1ccc(N)nc1=O [Compound 1, β-D-2′-deoxy-2′-fluoro-2′-C-methylcytidine] | effective in inhibiting HCV replication |  |  |  | 
2 | CC(C)(C)OC(=O)N[C@H]1CCCCCC=C[C@@H]2C[C@@]2(C(=O)NS(=O)(=O)C2CC2)NC(=O)[C@@H]2C[C@@H](OC(=O)N3Cc4cccc(F)c4C3)CN2C1=O [Compound 2, (1S,4R,6S,14S,18R)-4-Fluoro-1,3-dihydro-isoindole-2-carboxylic acid 14-tert-butoxycarbonylamino-4-cyclopropanesulfonylaminocarbonyl-2,15-dioxo-3,16-diaza-tricyclo[14.3.0.04,6]nonadec-7-en-18-yl ester] | effective in inhibiting HCV replication |  |  |  | 
3 | diisobutyl ester prodrug of β-D-2′-deoxy-2′-fluoro-2′-C-methylcytidine [Compound 1a] |  | −1.3 | improved anti-viral efficacy | increased permeability | increased plasma exposure
